In PubChem BioAssay AID330 (DTP/NCI, 2004):
Where “and” joins values, the source holds several entries; their conditions need not be identical. Equal entries are not always repeated. Toxic doses and inconclusive results are not listed.

Test system: P388 leukemia ip, CD2F1 mice, survival T/C
Test: NCI In Vivo Anticancer Drug Screen. Data for tumor model P388 Leukemia (intraperitoneal) in CD2F1 (CDF1) mice
Details: endpoint: median survival time, higher = longer survival
How it was run: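 Mice carrying the transplanted tumor received test compound or vehicle. Survival was recorded in each group, and the value is the treated-group measurement divided by that of the vehicle-treated control group.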

[1] = dose: 60.0 mg/kg/injection, schedule: Q01DX005 (ip), vehicle: saline with Tween-80
[2] = dose: 120.0 mg/kg/injection, schedule: Q01DX005 (ip), vehicle: saline with Tween-80
[3] = dose: 240.0 mg/kg/injection, schedule: Q01DX005 (ip), vehicle: saline with Tween-80
[4] = dose: 100.0 mg/kg/injection, schedule: Q04DX003 (ip), vehicle: saline
[5] = dose: 200.0 mg/kg/injection, schedule: Q04DX003 (ip), vehicle: saline
[6] = dose: 400.0 mg/kg/injection, schedule: Q04DX003 (ip), vehicle: saline
[7] = dose: 50.0 mg/kg/injection, schedule: Q01DX005 (ip), vehicle: saline with Tween-80
[8] = dose: 100.0 mg/kg/injection, schedule: Q01DX005 (ip), vehicle: saline with Tween-80
[9] = dose: 200.0 mg/kg/injection, schedule: Q01DX005 (ip), vehicle: saline with Tween-80

CS(=O)(=O)CS(=O)(=O)OCCCl
T/C (dose: 6.25 mg/kg/injection, schedule: Q01DX005 (ip), vehicle: dextrose): 109 % of control
T/C (dose: 6.25 mg/kg/injection, schedule: Q01DX005 (ip), vehicle: distilled water + Tween-80): 114 % of control
T/C (dose: 6.25 mg/kg/injection, schedule: Q01DX005 (iv), vehicle: dextrose): 109 % of control
T/C (dose: 10.0 mg/kg/injection, schedule: Q01DX005 (ip), vehicle: saline): 121 % of control
T/C (dose: 12.5 mg/kg/injection, schedule: Q01DX005 (iv), vehicle: dextrose): 118 % of control
T/C (dose: 22.0 mg/kg/injection, schedule: Q01DX005 (ip), vehicle: saline): 166 % of control
T/C (dose: 25.0 mg/kg/injection, schedule: Q01DX005 (ip), vehicle: dextrose): 154 % of control
T/C (dose: 33.0 mg/kg/injection, schedule: Q01DX005 (ip), vehicle: other): 230 % of control
T/C (dose: 33.0 mg/kg/injection, schedule: Q01DX005 (ip), vehicle: saline): 198 % of control
T/C (dose: 33.0 mg/kg/injection, schedule: Q01DX005 (ip), vehicle: water): 201 % of control
T/C (dose: 33.5 mg/kg/injection, schedule: Q01DX005 (ip), vehicle: saline): 209 % of control
T/C (dose: 50.0 mg/kg/injection, schedule: Q01DX005 (ip), vehicle: dextrose): 241 % of control and 330 % of control
T/C (dose: 50.0 mg/kg/injection, schedule: Q01DX005 (ip), vehicle: distilled water + Tween-80): 250 % of control
T/C (dose: 50.0 mg/kg/injection, schedule: Q01DX005 (ip), vehicle: other): 588 % of control
T/C (dose: 50.0 mg/kg/injection, schedule: Q01DX005 (ip), vehicle: saline): 245 % of control and 267 % of control
T/C (dose: 50.0 mg/kg/injection, schedule: Q01DX005 (ip), vehicle: water): 254 % of control and 285 % of control
T/C (dose: 50.0 mg/kg/injection, schedule: Q01DX005 (iv), vehicle: dextrose): 196 % of control
T/C (dose: 75.0 mg/kg/injection, schedule: Q01DX005 (ip), vehicle: dextrose): 582 % of control
T/C (dose: 75.0 mg/kg/injection, schedule: Q01DX005 (ip), vehicle: other): 588 % of control
T/C (dose: 75.0 mg/kg/injection, schedule: Q01DX005 (ip), vehicle: saline): 156 % of control
T/C (dose: 75.0 mg/kg/injection, schedule: Q01DX005 (ip), vehicle: water): 294 % of control
T/C (dose: 100.0 mg/kg/injection, schedule: Q01DX005 (ip), vehicle: dextrose): 535 % of control
T/C (dose: 100.0 mg/kg/injection, schedule: Q01DX005 (ip), vehicle: distilled water + Tween-80): 535 % of control
T/C (dose: 100.0 mg/kg/injection, schedule: Q01DX005 (ip), vehicle: other): 588 % of control
T/C (dose: 100.0 mg/kg/injection, schedule: Q01DX005 (ip), vehicle: saline): 151 % of control and 200 % of control
T/C (dose: 100.0 mg/kg/injection, schedule: Q01DX005 (ip), vehicle: water): 294 % of control

CC(=O)OCCNc1n[nH]c(=O)c2ccncc12
T/C (dose: 30.0 mg/kg/injection, schedule: Q01DX005 (ip), vehicle: saline with Tween-80): 95 % of control
T/C [1]: 93 % of control
T/C [2]: 101 % of control
T/C [3]: 113 % of control

Clc1cc2nsnc2cc1Cl
T/C (dose: 50.0 mg/kg/injection, schedule: Q04DX003 (ip), vehicle: saline): 100 % of control
T/C [4]: 94 % of control
T/C [5]: 104 % of control
T/C [6]: 101 % of control

COC(=O)c1ccc(C)c(N(CCO)CCO)c1
T/C [7]: 104 % of control
T/C [8]: 104 % of control
T/C [9]: 104 % of control

COC(SC)(SC)c1cc(-c2c(Cl)cccc2Cl)no1
T/C [1]: 101 % of control
T/C [2]: 101 % of control
T/C [3]: 103 % of control

CCOP(=O)(OCC)/C(C#N)=C\c1ccc(O)c(OC)c1
T/C (dose: 100.0 mg/kg/injection, schedule: Q04DX003 (ip), vehicle: saline with Tween-80): 110 % of control
T/C (dose: 200.0 mg/kg/injection, schedule: Q04DX003 (ip), vehicle: saline with Tween-80): 100 % of control
T/C (dose: 400.0 mg/kg/injection, schedule: Q04DX003 (ip), vehicle: saline with Tween-80): 100 % of control

CCCCCCCCCCCCS(=O)(=O)O
T/C (dose: 3.12 mg/kg/injection, schedule: Q01DX009 (ip), vehicle: saline with Tween-80): 119 % of control
T/C (dose: 6.25 mg/kg/injection, schedule: Q01DX009 (ip), vehicle: saline with Tween-80): 111 % of control and 119 % of control
T/C (dose: 12.5 mg/kg/injection, schedule: Q01DX009 (ip), vehicle: saline with Tween-80): 110 % of control and 112 % of control

C[Si]1(C)N[Si](C)(C)N([Si](C)(C)C)[Si](C)(C)N1
T/C [7]: 93 % of control
T/C [8]: 101 % of control
T/C [9]: 109 % of control

CCOC(=O)Nc1cc2c(c(N)n1)N=C(c1ccc3ccccc3c1)CN2
T/C (dose: 5.0 mg/kg/injection, schedule: Q01DX005 (ip), vehicle: saline with Tween-80): 153 % of control
T/C (dose: 7.5 mg/kg/injection, schedule: Q01DX005 (ip), vehicle: saline with Tween-80): 165 % of control
T/C (dose: 10.0 mg/kg/injection, schedule: Q01DX005 (ip), vehicle: saline with Tween-80): 166 % of control and 168 % of control

CCCSC(=S)Nc1nc2ccc(C)cc2s1
T/C [4]: 100 % of control
T/C [5]: 93 % of control
T/C [6]: 101 % of control

Nc1c(CC(=O)O)cccc1C(=O)c1ccccc1
T/C (dose: 50.0 mg/kg/injection, schedule: Q01DX009 (ip), vehicle: saline): 87 % of control
T/C (dose: 100.0 mg/kg/injection, schedule: Q01DX009 (ip), vehicle: saline): 92 % of control

CC(=O)Oc1cc(C)c2c(c1C)C1OC(=O)C(C)C1CC2 (configuration not stated)
T/C (dose: 50.0 mg/kg/injection, schedule: Q01DX005 (ip), vehicle: Klucel (hydroxypropylcellulose) (HPC)): 100 % of control
T/C (dose: 100.0 mg/kg/injection, schedule: Q01DX005 (ip), vehicle: Klucel (hydroxypropylcellulose) (HPC)): 103 % of control
T/C (dose: 200.0 mg/kg/injection, schedule: Q01DX005 (ip), vehicle: Klucel (hydroxypropylcellulose) (HPC)): 98 % of control

O=c1oc2cccc(O)c2s1
T/C (dose: 12.5 mg/kg/injection, schedule: Q01DX001 (ip), vehicle: saline): 97 % of control
T/C (dose: 25.0 mg/kg/injection, schedule: Q01DX001 (ip), vehicle: saline): 99 % of control
T/C (dose: 50.0 mg/kg/injection, schedule: Q01DX001 (ip), vehicle: Klucel (hydroxypropylcellulose) (HPC)): 106 % of control
T/C (dose: 50.0 mg/kg/injection, schedule: Q01DX001 (ip), vehicle: saline): 98 % of control

O=C1CC2CCCCC2CC1c1ccccc1 (configuration not stated)
T/C (dose: 50.0 mg/kg/injection, schedule: Q01DX009 (ip), vehicle: Klucel (hydroxypropylcellulose) (HPC)): 104 % of control
T/C (dose: 100.0 mg/kg/injection, schedule: Q01DX009 (ip), vehicle: Klucel (hydroxypropylcellulose) (HPC)): 88 % of control
T/C (dose: 200.0 mg/kg/injection, schedule: Q01DX009 (ip), vehicle: Klucel (hydroxypropylcellulose) (HPC)): 95 % of control

Cc1cc(C#N)c[n+](C)c1
T/C (dose: 60.0 mg/kg/injection, schedule: Q01DX005 (ip), vehicle: saline): 108 % of control
T/C (dose: 120.0 mg/kg/injection, schedule: Q01DX005 (ip), vehicle: saline): 95 % of control

CCC1(C#N)N=C(c2ccccc2)c2ccccc2N1C(=O)OC (configuration not stated)
T/C [1]: 96 % of control
T/C [2]: 98 % of control
T/C [3]: 98 % of control

CCN(CC)CCC(=O)c1ccc(Cl)c2ccccc12
T/C (dose: 6.25 mg/kg/injection, schedule: Q01DX005 (ip), vehicle: saline with Tween-80): 101 % of control
T/C (dose: 12.5 mg/kg/injection, schedule: Q01DX005 (ip), vehicle: saline with Tween-80): 93 % of control
T/C (dose: 25.0 mg/kg/injection, schedule: Q01DX005 (ip), vehicle: saline with Tween-80): 99 % of control and 104 % of control
T/C [7]: 109 % of control
T/C [8]: 93 % of control

O=[N+]([O-])c1ccc(NN=NCCF)cc1
T/C (dose: 0.44 mg/kg/injection, schedule: Q01DX005 (ip), vehicle: other): 102 % of control and 94 % of control
T/C (dose: 0.88 mg/kg/injection, schedule: Q01DX005 (ip), vehicle: other): 102 % of control and 94 % of control
T/C (dose: 1.75 mg/kg/injection, schedule: Q01DX005 (ip), vehicle: other): 105 % of control and 124 % of control and 94 % of control
T/C (dose: 3.5 mg/kg/injection, schedule: Q01DX005 (ip), vehicle: other): 100 % of control and 106 % of control and 94 % of control
T/C (dose: 7.0 mg/kg/injection, schedule: Q01DX005 (ip), vehicle: other): 109 % of control
